Patent publication US6495673B1, “Method for isolating the DNA encoding an enzyme” (Medical Research Council, priority 1996, dated 2002)
pKd: −log10 of the molar value. No end group written: not given here. *: point of attachment. Biotin = O=C1N[C@H]2[C@H](CS[C@H]2CCCCC(=O)*)N1

Key:
[1] = molecular target: T1, calmodulin-tagged phage DN323 (Homo sapiens, UniProt P0DP23); test: Competition assay of (calmodulin-tagged phage)/(biotin-peptide) complex with 1000-fold excess unlabeled peptide, ELISA; type: binding; settings: 1000-fold molar excess of non-biotinylated peptide
T1 construct: made in house; host or cells: E. coli (phage production)
Method: A 10^−8 M solution of a biotinylated calmodulin-binding peptide ([…] or […]; Montigiani et al., 1996) was added to calmodulin-tagged phage preparations (10^12 transforming units/ml) in TBSC and incubated for 10 minutes. To the resulting mixture, aliquoted in different tubes, unlabeled […] peptide in 1000-fold molar excess (10^−5 M) was added at different times. The fraction of phage particles in which the biotinylated peptide had been replaced by the unlabeled peptide was then determined by ELISA as described above.
The results of a competition assay of (calmodulin-tagged phage DN323)/(biotin-peptide) complex with a 1000-fold molar excess of non-biotinylated calmodulin-binding peptide, detected by ELISA are illustrated in FIG. 5. Squares: […]; circles, CAAARAXKNFIAVSAANRFKKIS.

calmodulin = calmodulin (Homo sapiens, UniProt P0DP23); settings: cited from earlier work
[2] = tested on: LUCK+ peptide substrate / GST-SH2 fusion; test: Selection of lck tyrosine kinase phage by capture of phosphorylated peptide on GST-SH2; type: biochemical, murine; settings: LUCK- peptide instead of LUCK+, all three phages
Method: As affinity capture reagent a GST-fusion of the N-terminal SH2 domain of PI 3-kinase was used, subcloned in pGEX vector (Pharmacia) and affinity-purified on glutathione agarose. The GST-SH2 fusion was coated on Nunc Immunotubes (4 ml; 100 μg/ml in PBS) at room temperature overnight. The tubes were then washed and incubated for 2 hours with 3% BSA in phosphorylation buffer (30 mM HEPES, pH 7.4, 150 mM NaCl, 12 mM MgCl2, 1 mM sodium vanadate, 1 mM CaCl2).
ATP was then added to a final concentration of 100 μM. After one minute, the mixtures were loaded onto separate GST-SH2-coated immunotubes and incubated for 30 minutes. The tubes were then washed 10 times with TBS +1 mM CaCl2 (TBSC) +0.1% Tween-20 and 10 times with TBSC. The phage bound to the tube via the phosphorylated peptide was specifically eluted with 1 ml 10 mM EGTA in PBS (Neri et al., 1995) that causes dissociation of the peptide ligand from calmodulin present in the fusion protein presented on the phage.
The eluted phage was used to infect exponentially growing TG1 E. coli cells according to standard procedures (Nissim et al., 1994), then plated on selective ampicillin-glucose-TY plates. Ampicillin-resistant transformants were counted and used to calculate the titre of the phage recovered in the selection procedure.

[3] = molecular target: T1, calmodulin-tagged phage DN323; test: Stability of (calmodulin-tagged phage)/peptide complex to PEG precipitation, ELISA; type: binding; settings: 20% PEG 6000 + 2.5M NaCl, 1 hour on ice
Method: Stability of (calmodulin-tagged phage)/peptide complexes to PEG precipitation was checked as follows. A 10^−8M solution (final concentration) of a biotinylated calmodulin-binding peptide […] was added to 1 ml of calmodulin-tagged phage (10^12 transforming unit/ml) in TBSC and incubated for 10 minutes. To this solution, 20% polyethyleneglycol (Mw6000) +2.5M NaCl was added (200 μl ) and the resulting mixture was incubated on ice for 1 hour, then centrifuged on a bench centrifuge (13,000 rpm; 5 minutes).
The pellet was resuspended in 1 ml of TBSC. The titre of the phage solutions before and after PEG precipitation were then determined. The fraction of phage particles that were still peptide-bound after the PEG precipitation procedure was evaluated by ELISA, using a streptavidin-coated plate (see above).
The difference in ELISA binding activity between the sample before (1) and after (2) PEG precipitation corresponds to a small loss in phage titre, as determined by E. coli infection and titration. In sample 3, 2% milk in TBSC was used instead of phage.

## CAAARWKKAFIAVSAANRFKKIS
[1]
  koff: < 10^−1 s^−1
  time for which complex with calmodulin-tagged phage is stable: more than 2 hours
calmodulin
  pKd: 11.66

## EPQFEEIGAARWKKAFIAVSNMFKKIS [LUCK-]
[2]
  phage titres recovered: low phage titres

## Biotin-CAAARWKKAFIAVSAANRFKKIS
[3]
  stability of calmodulin/peptide complex upon PEG precipitation: stable even after PEG precipitation
